The results in this text go back to ChEMBL document CHEMBL1154959, “The role of phosphate in the action of thymidine phosphorylase inhibitors: Implications for the catalytic mechanism” (Bioorg Med Chem Lett, 2010).

The source made the active and inactive calls. The rule behind the calls is not given here.

For one experiment, the target named is Thymidine phosphorylase (Escherichia coli K-12, UniProt P07650). Briefly: Inhibition of Escherichia coli thymidine phosphorylase.
Sequence of Thymidine phosphorylase (P07650 whole entry): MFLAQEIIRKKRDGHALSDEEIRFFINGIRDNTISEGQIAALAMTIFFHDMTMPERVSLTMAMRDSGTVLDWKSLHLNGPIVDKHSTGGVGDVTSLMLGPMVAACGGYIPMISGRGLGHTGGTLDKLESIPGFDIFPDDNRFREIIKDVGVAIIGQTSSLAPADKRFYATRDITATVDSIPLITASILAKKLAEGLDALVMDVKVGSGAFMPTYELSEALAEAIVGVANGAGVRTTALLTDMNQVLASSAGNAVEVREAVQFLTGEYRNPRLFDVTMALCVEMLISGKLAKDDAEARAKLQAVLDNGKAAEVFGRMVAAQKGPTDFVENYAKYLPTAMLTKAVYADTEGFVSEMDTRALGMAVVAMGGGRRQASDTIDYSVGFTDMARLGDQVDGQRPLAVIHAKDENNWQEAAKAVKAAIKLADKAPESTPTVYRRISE
In general, Ki refers to the equilibrium dissociation constant of an inhibitor or competing ligand from its target. Low values mean tighter binding, high ones weaker binding. On to `N=C1CCCN1Cc1[nH]c(=O)[nH]c(=O)c1Cl`, for which the inhibition constant Ki was 35 nM.

`Nc1c(Br)c(=O)[nH]c(=O)n1CCCCCCCCP(=O)(O)O` gave an inhibition constant Ki of 476000 nM.

In turn, `Nc1nccn1Cc1[nH]c(=O)[nH]c(=O)c1F` registered a Ki of 11 nM.

As to `O=c1[nH]c(Cn2ccnc2)c(F)c(=O)[nH]1`, the inhibition constant (Ki) is 51 nM.

Take `Cc1cn([C@@H]2O[C@H](CO)[C@H]3C[C@@H](CP(=O)(O)O)O[C@H]32)c(=O)[nH]c1=O`: the Ki was found to be 1000 nM.

A further experiment deals with Thymidine phosphorylase (Escherichia coli K-12) (UniProt P07650). Put plainly: Inhibition of Escherichia coli thymidine phosphorylase by spectrophotometry.
Sequence of Thymidine phosphorylase (Escherichia coli K-12) (P07650 whole entry, looked up): as the sequence (P07650 whole entry) above
For `Nc1nccn1Cc1[nH]c(=O)[nH]c(=O)c1F`, the outcome was Active.
